The target in one assay is T1, hACC1 (Homo sapiens, UniProt Q13085).
T1 construct: PCR primers were designed for full-length hACC1 and hACC2 using GenBank submissions AY237919 and AJ575592, respectively; His tag (C); made in house; host or cells: baculovirus, Sf9 insect cells
The experiment in a line: [14C]bicarbonate incorporation assay, overall ACC activity. Type of assay: biochemical. The settings on record: recombinant hACC1, overall ACC activity. On the procedure: (§1) In vitro IC50 values of human ACC were determined using recombinant enzyme produced by standard procedures. For example, full-length cDNAs for both the human isoforms (hACC1 and hACC2) were each cloned and expressed as a recombinant protein using a baculovirus system. Double stranded cDNA from human fetal liver (Quick-Clone cDNA, cat. #7171-1) was purchased from BD/Clontech (Mt. View, Calif.). PCR primers were designed for full-length hACC1 and hACC2 using GenBank submissions AY237919 and AJ575592, respectively. The Advantage GC 2 PCR kit (BD/Clontech) was used for amplification. The PCR products (about 7 Kb) were TOPO-cloned into the pCR4Blunt vector (Invitrogen, Carlsbad, Calif.), and 6 clones of each gene were isolated. […] Full length versions of the two cDNAs corresponding to their respective Genbank sequences were assembled in pBluescript SK+ (Stratagene, La Jolla, Calif.) by combining error-free fragments from the PCR clones. The resulting hACC1 clone, designated pCS35, has six silent nucleotide differences compared to Genbank accession AY237919. The final hACC2 clone, designated pCS36, has ten silent nucleotide differences compared to Genbank accession AJ575592. Primers were designed to PCR amplify the cDNAs along with the in-frame 3′-his tag sequences from the pET vector and TOPO-cloned the resulting products into the Gateway® entry vector pENTR/D-TOPO. The ACC2 primers were designed to delete amino acids 1-148 and add Met-Gly in front of Lys149 in the final product. The resulting entry clones were transferred to BaculoDirect™ linear DNA (Invitrogen corp.) using the Gateway® LR recombination reaction. The recombinant baculovirus DNA was transfected into insect cells and viral amplification was performed according to the manufacturer's protocols. For protein expression sf9 cells were infected with a P3 viral stock in the presence of 50 uM biotin. The cells were harvested after 48-72 hr, lysed by sonication, and the resulting extract was clarified by centrifugation. ACC in the crude extract was concentrated by ammonium sulfate precipitation (40% w/v) and purified by Ni^2+-NTA chromatography (Novagen) followed by anion exchange chromatography on a UNO-Q column (BioRad).
(§2) Overall ACC activity in the hACC preparations is measured by following incorporation of [^14C]bicarbonate into […] essentially as described (Thumpy and Wakil, J Biol Chem 260, 6318-6323 (1985). Briefly, the reaction mixture (50 μL) contains: 50 mM Hepes (pH7.4), 20 mM K-Citrate, 20 mM Mg-Acetate 1.5 mM MgSO4, 2 mM DTT, 2 mM acetyl-CoA, 12 mM NaHCO3, 0.2 mM NaH^14CO3 (˜50 mCi/mmol), 0.01% (v/v) Triton X-100, 0.75 mg/mL BSA, 1% (v/v) DMSO (with or without inhibitor), and 0.3 μg (hACC1) or 0.15 μg (hACC2) enzyme. Reactions are initiated by the addition of ATP to a final concentration 2 mM. After 10 minutes at 37° C., the reaction is stopped by the addition of 2N HCl (50 μL). The samples are evaporated in a hood overnight, resuspended in H2O (200 μL), and incorporated label is quantified by scintillation counting in scintillation cocktail (3 mL). Inhibition data are fit to dose-response curves and IC50 values are reported (i.e. the concentration of inhibitor that gives 50% inhibition).

The next assay concerns the target T2, hACC2 (Homo sapiens, UniProt O00763).
T2 construct: delete amino acids 1-148 and add Met-Gly in front of Lys149 in the final product; His tag (C); made in house; host or cells: baculovirus, Sf9 insect cells
Described as above. It counts as biochemical. The settings on record: recombinant hACC2, overall ACC activity. On the procedure:
as §1, §2

T2 sequence (O00763 149-2458 limits assumed): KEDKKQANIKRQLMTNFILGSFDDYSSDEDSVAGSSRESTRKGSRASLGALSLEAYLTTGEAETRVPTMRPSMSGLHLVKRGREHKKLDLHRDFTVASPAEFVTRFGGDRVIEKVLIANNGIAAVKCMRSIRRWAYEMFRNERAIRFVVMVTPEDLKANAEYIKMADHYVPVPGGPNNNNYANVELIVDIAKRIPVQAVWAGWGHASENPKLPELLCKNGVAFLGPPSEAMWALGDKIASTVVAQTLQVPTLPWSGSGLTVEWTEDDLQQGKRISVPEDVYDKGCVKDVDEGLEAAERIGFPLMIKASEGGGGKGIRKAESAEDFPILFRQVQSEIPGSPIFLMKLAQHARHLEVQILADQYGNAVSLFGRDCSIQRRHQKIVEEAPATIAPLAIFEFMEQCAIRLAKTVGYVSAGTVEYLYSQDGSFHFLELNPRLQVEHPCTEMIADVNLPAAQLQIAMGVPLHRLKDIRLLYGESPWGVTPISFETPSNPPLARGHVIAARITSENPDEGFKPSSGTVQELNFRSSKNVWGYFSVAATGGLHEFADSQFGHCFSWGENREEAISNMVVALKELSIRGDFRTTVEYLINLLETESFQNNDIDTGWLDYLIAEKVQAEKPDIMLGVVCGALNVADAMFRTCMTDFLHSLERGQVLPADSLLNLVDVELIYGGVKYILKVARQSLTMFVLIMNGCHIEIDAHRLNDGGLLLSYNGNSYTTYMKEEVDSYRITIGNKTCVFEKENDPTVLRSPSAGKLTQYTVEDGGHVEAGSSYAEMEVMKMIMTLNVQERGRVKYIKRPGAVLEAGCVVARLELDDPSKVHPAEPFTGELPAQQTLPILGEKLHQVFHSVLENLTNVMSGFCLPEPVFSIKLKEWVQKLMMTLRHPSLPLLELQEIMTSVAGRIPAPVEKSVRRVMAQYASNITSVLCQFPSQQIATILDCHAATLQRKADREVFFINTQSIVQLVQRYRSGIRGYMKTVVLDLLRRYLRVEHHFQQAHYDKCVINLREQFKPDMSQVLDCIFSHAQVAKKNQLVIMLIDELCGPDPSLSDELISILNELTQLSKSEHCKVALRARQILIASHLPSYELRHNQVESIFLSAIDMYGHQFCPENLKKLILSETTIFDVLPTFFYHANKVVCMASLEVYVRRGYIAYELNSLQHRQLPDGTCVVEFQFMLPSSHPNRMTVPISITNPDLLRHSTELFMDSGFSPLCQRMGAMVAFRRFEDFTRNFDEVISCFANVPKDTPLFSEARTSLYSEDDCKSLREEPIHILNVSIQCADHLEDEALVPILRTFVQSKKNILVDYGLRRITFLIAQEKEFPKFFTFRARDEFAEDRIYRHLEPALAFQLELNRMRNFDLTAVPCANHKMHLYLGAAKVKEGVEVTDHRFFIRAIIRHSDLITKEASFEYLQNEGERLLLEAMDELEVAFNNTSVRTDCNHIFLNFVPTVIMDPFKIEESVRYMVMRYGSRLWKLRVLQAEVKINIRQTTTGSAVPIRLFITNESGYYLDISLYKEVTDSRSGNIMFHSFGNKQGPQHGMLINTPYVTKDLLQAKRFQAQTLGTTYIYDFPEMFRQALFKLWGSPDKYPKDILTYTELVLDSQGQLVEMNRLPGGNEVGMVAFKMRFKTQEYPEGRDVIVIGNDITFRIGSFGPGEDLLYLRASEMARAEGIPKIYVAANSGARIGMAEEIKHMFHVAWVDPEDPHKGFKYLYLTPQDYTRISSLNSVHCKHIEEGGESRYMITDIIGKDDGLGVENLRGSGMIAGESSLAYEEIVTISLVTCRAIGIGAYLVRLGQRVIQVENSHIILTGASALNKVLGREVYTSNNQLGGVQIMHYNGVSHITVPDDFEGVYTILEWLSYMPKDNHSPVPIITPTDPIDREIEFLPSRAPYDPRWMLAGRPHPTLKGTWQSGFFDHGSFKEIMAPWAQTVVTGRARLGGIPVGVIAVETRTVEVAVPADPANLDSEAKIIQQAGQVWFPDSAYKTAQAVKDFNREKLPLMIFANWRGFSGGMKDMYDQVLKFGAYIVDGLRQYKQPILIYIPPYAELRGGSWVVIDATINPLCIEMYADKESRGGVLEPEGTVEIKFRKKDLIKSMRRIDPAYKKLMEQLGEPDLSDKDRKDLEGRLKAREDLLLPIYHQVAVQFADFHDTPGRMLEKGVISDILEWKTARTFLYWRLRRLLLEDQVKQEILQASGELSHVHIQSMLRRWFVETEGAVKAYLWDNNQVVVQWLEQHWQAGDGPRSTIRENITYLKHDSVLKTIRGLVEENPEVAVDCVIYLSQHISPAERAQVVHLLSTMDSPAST

Broadly, the IC50 is the midpoint of a concentration-inhibition curve. As for `COc1cc(C(=O)N2CCC3(CC2)NC(=O)c2cc(NC(C)=O)ccc2O3)nc2c(OC)cccc12` [Compound 9], the IC50 stood at 0.092 µM on hACC1 and 0.056 µM at hACC2. As for `COc1cc(C(=O)N2CCC3(CC2)NC(=O)c2cc(-c4nnn[nH]4)ccc2O3)nc2c(OC)cccc12` [Compound 10], the IC50 at hACC1 turned out to be 0.016 µM; on hACC2, 0.011 µM.

Regarding `COc1ccc(OC)c2[nH]c(C(=O)N3CCC4(CC3)NC(=O)c3cc(Br)ccc3O4)cc12` [Compound 16], the results for the IC50 at hACC1 and on hACC2 were 0.26 µM and 0.2 µM, respectively. Taken in the same sequence, the figures for `COc1ccc(OC)c2[nH]c(C(=O)N3CCC4(CC3)NC(=O)c3cc(NC(C)=O)ccc3O4)cc12` [Compound 17] were 0.26 µM and 0.31 µM. `COc1cccc2c(C)c(C(=O)N3CCC4(CC3)NC(=O)c3cc(Br)ccc3O4)[nH]c12` [Compound 23]: the results for the IC50 at hACC1 and on hACC2 were 0.14 µM and 0.18 µM, respectively.

For `COc1cccc2c(C)c(C(=O)N3CCC4(CC3)NC(=O)c3cc(NC(C)=O)ccc3O4)[nH]c12` [Compound 24], the concentration for half-maximal inhibition (IC50) on hACC1 worked out at 0.1 µM; at hACC2 it was 0.077 µM.

On to `COc1ccc(OC)c2c1cc(C(=O)N1CCC3(CC1)NC(=O)c1cc(Br)ccc1O3)n2C` [Compound 26], for which the results for the 50% inhibitory concentration (IC50) on hACC1 and at hACC2 were 0.83 µM and 0.59 µM, respectively. Take `COc1cc(C(=O)N2CCC3(CC2)NC(=O)c2cc(NC(C)=O)ccc2O3)cc2c(OC)cccc12` [Compound 31, 6-Acetamido-1′-[(4,8-dimethoxynaphth-2-yl)carbonyl]spiro[2H-1,3-benzoxazin-2,4′-piperidin]-4-(3H)-one]: the results for the IC50 at hACC1 and on hACC2 were 0.0062 µM and 0.003 µM, respectively.

Consider `COc1cc(C(=O)N2CCC3(CC2)NC(=O)c2cc(Br)ccc2O3)nc2c(C3CC3)cccc12` [Compound 32], for which the results for the IC50 on hACC1 and on hACC2 were 0.18 µM and 0.11 µM, respectively. Regarding `COc1cc(C(=O)N2CCC3(CC2)NC(=O)c2cc(Br)ccc2O3)nc2ccccc12` [Compound 40], at hACC2, the half-maximal inhibitory concentration (IC50) was determined as 0.9 µM.

For the molecule `COc1cccc2ccc(C(=O)N3CCC4(CC3)NC(=O)c3cc(Br)ccc3O4)nc12` [Compound 44], the IC50 came out at 0.74 µM at hACC1 and 0.49 µM on hACC2.

For `COc1cc(C(=O)N2CCC3(CC2)NC(=O)c2cc(Br)ccc2N3)nc2c(OC)cccc12` [Compound 71, 6′-Bromo-1-[(4,8-dimethoxyquinoline-2-yl)carbonyl]spiro[piperidine-4,2′(1′H)-quinazolin]-4′-(3′H)-one], the figures for the concentration for half-maximal inhibition (IC50) on hACC1 and at hACC2 were 1 µM and 0.49 µM, respectively.

Take `COc1cc2c(OC)cccc2cc1C(=O)N1CCC2(CC1)NC(=O)c1cc(Br)ccc1N2` [Compound 90]: the 50% inhibitory concentration (IC50) on hACC1 was 2.2 µM; at hACC2 it was 1.1 µM. In the case of `COc1cc(C(=O)N2CCC3(CC2)NC(=O)c2cc(Br)ccc2N3)nc2c(C(C)C)cccc12` [Compound 91], the values for the IC50 at hACC1 and on hACC2 were 2 µM and 3.7 µM, respectively. Taken in the same sequence, the figures for `COc1cc(C(=O)N2CCC3(CC2)NC(=O)c2cc(Br)ccc2N3)nc2c(SC)cccc12` [Compound 93] were 0.43 µM and 1.1 µM. As for `O=C1NC2(CCN(C(=O)c3cccc(-c4cc[nH]n4)c3)CC2)Oc2ccc(Br)cc21` [Compound 103, 6-Bromo-1′-[3-(1H-pyrazol-3-yl)benzoyl]spiro[2H-1,3-benzoxazin-2,4′-piperidin]-4-(3H)-one], the figures for the IC50 at hACC1 and on hACC2 were 1.3 µM and 0.7 µM, respectively.

In the case of `COc1cc(C(=O)N2CCC3(CC2)NC(=O)c2cc(Br)ccc2O3)nc2c(C(C)C)cccc12` [Compound 134], the half-inhibitory concentration (IC50) at hACC1 stood at 4.7 µM.

For the molecule `COc1cc(C(=O)N2CCC3(CC2)NC(=O)c2cc(Br)ccc2O3)c(OC)c2ccccc12` [Compound 135, 6-Bromo-1′-[(1,4-dimethoxynaphth-2-yl)carbonyl]spiro[2H-1,3-benzoxazin-2,4′-piperidin]-4-(3H)-one], the IC50 at hACC1 was 2.2 µM. For `Cn1nccc1-c1cccc(C(=O)N2CCC3(CC2)NC(=O)c2cc(Br)ccc2O3)c1` [Compound 141, 6-Bromo-1′-[3-(1-methyl-1H-pyrazol-5-yl)benzoyl]spiro[2H-1,3-benzoxazin-2,4′-piperidin]-4-(3H)-one], the IC50 on hACC2 was 1.3 µM. With `COc1cc(C(=O)N2CCC3(CC2)NC(=O)c2cc4ccccc4cc2O3)nc2c(SC)cccc12` [Compound 158], at hACC2, the IC50 was determined as 0.008 µM. As for `COc1cccc2c(C)c(C(=O)N3CCC4(CC3)NC(=O)c3cc5ccccc5cc3O4)[nH]c12` [Compound 161, 1′-[[7-Methoxy-3-methyl-1H-indol-2-yl)carbonyl]spiro[2H-naphtho[2,3-e]-1,3-oxazin-2,4′-piperidin]-4-(3H)-one], at hACC1, the IC50 came out at 0.008 µM. `COc1ccc2cc3c(cc2c1)C(=O)NC1(CCN(C(=O)c2cc(OC)c4cccc(OC)c4c2)CC1)O3` [Compound 162]: the IC50 on hACC1 is 0.005 µM. With `COc1cc(C(=O)N2CCC3(CC2)NC(=O)c2cc(OC(C)C)ccc2O3)cc2c(OC)cccc12` [Compound 170], on hACC1, the half-maximal inhibitory concentration (IC50) stood at 0.006 µM. With `COc1cc(C(=O)N2CCC3(CC2)NC(=O)c2cc(OC(F)(F)F)ccc2O3)cc2c(OC)cccc12` [Compound 173], on hACC1, the IC50 was determined as 0.006 µM. As for `COc1cc(C(=O)N2CCC3(CC2)NC(=O)c2cc(OC(F)(F)F)ccc2O3)cc2c(SC)cccc12` [Compound 175], at hACC1, the IC50 was found to be 0.021 µM. As to `CCOc1ccc2c(c1)C(=O)NC1(CCN(C(=O)c3cc(OC)c4cccc(SC)c4c3)CC1)O2` [Compound 176], the half-inhibitory concentration (IC50) on hACC1 was determined as 0.005 µM. Consider `COc1ccc2c(c1)C(=O)NC1(CCN(C(=O)c3cc(OC)c4cccc(SC)c4c3)CC1)O2` [Compound 177], for which the 50% inhibitory concentration (IC50) at hACC1 amounted to 0.005 µM. Take `COc1cc(C(=O)N2CCC3(CC2)NC(=O)c2cc(C(C)C)ccc2O3)cc2c(OC)cccc12` [Compound 178]: on hACC1, the 50% inhibitory concentration (IC50) was 0.014 µM. For the molecule `COc1cc(C(=O)N2CCC3(CC2)NC(=O)c2cc(C(C)C)ccc2O3)cc2c(SC)cccc12` [Compound 179], the 50% inhibitory concentration (IC50) at hACC1 is 0.038 µM. As for `COc1ccc2c(c1)C(=O)NC1(CCN(C(=O)c3cc4c(OC)ccc(OC)c4n3C)CC1)O2` [Compound 181], the IC50 on hACC1 was found to be 0.42 µM. On to `COc1ccc2c(c1)C(=O)NC1(CCN(C(=O)c3cc4c(OC)ccc(OC)c4[nH]3)CC1)O2` [Compound 182], for which, on hACC1, the IC50 was found to be 0.16 µM. In the case of `COc1cccc2c(C)c(C(=O)N3CCC4(CC3)NC(=O)c3cc(N)ccc3O4)[nH]c12` [Compound 183], at hACC1, the IC50 was found to be 0.43 µM. Regarding `COc1ccc2c(c1)C(=O)NC1(CCN(C(=O)c3[nH]c4c(OC)cccc4c3C)CC1)N2` [Compound 189, 6′-Methoxy-1-[[7-methoxy-3-methyl-1H-indol-2-yl)carbonyl]spiro-[piperidine-4,2′(1′H)-quinazolin]-4′-(3′H)-one], the half-inhibitory concentration (IC50) on hACC1 is 0.5 µM. As to `COc1cc2c(cc1OC)C(=O)NC1(CCN(C(=O)c3cc(OC)c4cccc(OC)c4c3)CC1)N2` [Compound 190], the IC50 at hACC1 amounted to 0.062 µM. Same read-out and setting: in the case of `COc1cc2c(cc1OC)C(=O)NC1(CCN(C(=O)c3cc(OC)c4cccc(OC)c4n3)CC1)N2` [Compound 191] it was 0.19 µM; in that of `COc1cc(C(=O)N2CCC3(CC2)NC(=O)c2cc(C)ccc2N3)cc2c(OC)cccc12` [Compound 192], 0.16 µM.

As to `COc1cc(C(=O)N2CCC3(CC2)NC(=O)c2cc(OC(F)(F)F)ccc2N3)cc2c(OC)cccc12` [Compound 194], the IC50 at hACC1 was 0.07 µM.

For `COc1cc(C(=O)N2CCC3(CC2)NC(=O)c2cc(OC(F)(F)F)ccc2N3)nc2c(OC)cccc12` [Compound 195], the IC50 on hACC1 was determined as 0.5 µM.

Turning to `COc1cc(C(=O)N2CCC3(CC2)NC(=O)c2cc(N4CCOCC4)ccc2O3)cc2c(OC)cccc12` [Compound 197], on hACC1, the 50% inhibitory concentration (IC50) was 0.004 µM.
